Measurements taken from patent US10806739B2, “Use of n-desmethylclobazam in the treatment of chronic pain disorders and related methods” (LES HOPITAUX UNIV[…] GENEVE, priority 2015, dated 2020).

What was measured:
α1β2γ2 GABAAR = molecular target: T1, α1β2γ2 GABAAR (Rattus norvegicus, UniProt P18508+P62813); assay: Whole-cell patch-clamp, potentiation of GABA-evoked currents in transfected HEK293 cells; type: cell-based; settings: α1GABAARs; GABA at EC10
T1 construct: expressed in transfected cells; host or cells: HEK293 cells (ATCC)
Description: (§1) To ensure expression of the γ2 subunit (required for modulation of GABAAR currents by BDZs) in all recorded cells, cells were transfected with a plasmid expressing the γ2 subunit plus eGFP from an IRES (internal ribosome entry site) and only eGFP-positive cells were selected for recordings. The transfection mixture contained (in μg): […], 3 γ2/eGFP (used as a marker of successful transfection). Whole-cell patch-clamp recordings were made 18-36 hrs after transfection at room temperature (20-24° C.) and at a holding membrane potential of −60 mV. Recording electrodes were filled with solution containing (in mM): 120 CsCl, 10 EGTA (aminopolycarboxylic acid), 10 HEPES (4-(2-hydroxyethyl)-1-piperazineethanesulfonic acid, pH 7.40), 4 MgCl2, 0.5 GTP (guanosine-5′-triphosphate) and 2 ATP (adenosine triphosphate). The external solution contained (in mM): 150 NaCl, 10 KCl, 2.0 CaCl2, 1.0 MgCl2, 10 HEPES (pH 7.40), and 10 glucose. GABA was applied to the recorded cell using a manually controlled pulse (6-10 s) of a low sub-saturating GABA concentration (EC10). […] EC50 values and Hill coefficients (nH) were obtained from fits of normalized concentration-response curves to the equation: IGABA=Imax[GABA]nH/([GABA]nH+[EC50]nH). Imax was determined as the average maximal current elicited by saturating concentration of GABA (30 μM−3 mM, depending on the subunit composition).

α3β3γ2 GABAAR = molecular target: T2, α3β3γ2 GABAAR (Rattus norvegicus, UniProt P18508+P20236); assay: as above; type: cell-based; settings: α3GABAARs; GABA at EC10
T2 construct: expressed in transfected cells; host or cells: HEK293 cells (ATCC)
Description: as §1

α5β2γ2 GABAAR = molecular target: T3, α5β2γ2 GABAAR (Rattus norvegicus, UniProt P18508+P19969); assay: as above; type: cell-based; settings: α5GABAARs; GABA at EC10
T3 construct: expressed in transfected cells; host or cells: HEK293 cells (ATCC)
Description: as §1

α2β3γ2 GABAAR = molecular target: T4, α2β3γ2 GABAAR (Rattus norvegicus, UniProt P18508+P23576); assay: as above; type: cell-based
T4 construct: expressed in transfected cells; host or cells: HEK293 cells (ATCC)
Description: as §1

[1] = tested on: α1β2γ2, α2β3γ2, α3β3γ2 and α5β2γ2 GABAARs; assay: Whole-cell patch-clamp, results stated across several recombinant GABAAR subtypes; type: cell-based, rat; settings: for Preference α2- versus α1GABAARs at low concentrations: low concentrations (<EC50); for Efficacy of potentiation of α2- versus α1GABAARs at saturating concentrations: saturating concentrations: 1 μM DZP, 20 μM CBZ, 20 μM NDMC; for Relative potentiation of subtypes at sub-saturating concentrations: sub-saturating concentrations (<EC50)
Description: as §1

[2] = tested on: T5, α1β2γ2, α2β3γ2, α3β3γ2 and α5β2γ2 GABAARs; assay: as above; type: cell-based, rat; settings: up to 3 μM for DZP, up to 20 μM for CBZ and NDMC
T5 construct: EC50 of potentiation of GABAAR currents; other: range over all four receptor subtypes; GABA at EC10; fused on or other part: eGFP co-expressed from an IRES on the γ2 plasmid (not fused)
Description: as §1

[3] = NDMC pharmacokinetics after oral administration, dried blood spot sampling, LCMS-MS; type: in vivo, C57BL/6 mice
Protocol: Pharmacokinetic parameters of NDMC following oral administration in C57BL/6 mice were determined and allowed to test whether antihyperalgesia after NDMC administration was mediated by NDMC itself and not by a down-stream metabolite.
Pharmacokinetic properties of NDMC were evaluated using the dried blood spot sampling method. This technique allows collecting multiple bleeds from the same animal over a large time window (Deglon et al., 2011, Pharm. Biomed. Analysis, 54(2): 359-367). Four μl of whole blood were collected and spotted onto a filter paper card from Whatman (Dassel, Germany) at different time points between 0 and 48 h after NDMC administration. NDMC concentration measurements were performed using a fully validated LCMS-MS (liquid chromatography—mass spectrometry or HPLC) method. Pharmacokinetic parameters were estimated by a noncompartmental method using WinNonlin® version 5.2 (Pharsight, Mountainview, Calif., USA).
Blood NDMC concentrations were measured with HPLC following single oral doses of 3, 10 and 30 mg kg^−1 in three mice per group (FIG. 5). Maximal blood levels of NDMC were reached within 2-3 hrs.

[4] = tested on: α2GABAAR-mediated antihyperalgesia; settings: GABAAR α1 (H→R) point-mutated mice
Protocol: To avoid confounding effects of anxiolysis in sedation experiments, and of sedation on antihyperalgesia experiments triple point-mutated mice were used. Sedation was assessed in triple (H→R) point-mutated mice, in which all GABAARs except α1 had been rendered BDZ-insensitive. Conversely, antihyperalgesia was studied in GABAAR α1 (H→R) point-mutated mice to rule out confounding sedation.

[5] = tested on: CCI mice, paw withdrawal threshold; assay: Mechanical hyperalgesia (dynamic von Frey filaments) in CCI neuropathic pain model; type: in vivo
Protocol: (§2) Experiments were performed in wild-type mice (genetic background C57BL/6J or 129X1/SvJ), and in homozygous triple and quadruple (H→R) GABAAR point-mutated mice of the 129X1/SvJ background (Ralvenius et al., 2015, supra). Quadruple point-mutated mice were generated by cross breeding of single point-mutated mice (Crestani et al., 2002, PNAS, 99(13): 8980-8985; Low et al., 2000, Science 290(5489): 131-134; Rudolph et al., 1999, Nature, 401(6755): 796-800). Quadruple point mutated mice carry the H→R mutation in the α1, α2, α3, and α5 subunits that is in all α subunits that can form a high affinity BDZ binding site.
A chronic constriction injury (CCI) model was used. Unilateral constriction injury of the left sciatic nerve just proximal to the trifurcation was performed. Anesthesia was induced and maintained by 2% isoflurane, combined with oxygen (30%). The sciatic nerve was exposed at the mid-thigh level proximal to the sciatic trifurcation by blunt dissection through the biceps femoris muscle. […] of nerve were freed of adhering tissue and three chromic gut ligatures (4/0) (Ethicon) were loosely put around the nerve with about 1 mm spacing. […] Heat hyperalgesia and mechanical sensitization were assessed 7 days after surgery.
Mechanical sensitivity was assessed with dynamic von Frey filaments (IITC, Woodland Hills, Calif.). […]

[6] = tested on: CCI mice, paw withdrawal latency; assay: Heat hyperalgesia (Plantar Test) in chronic constriction injury (CCI) neuropathic pain model; type: in vivo
Protocol: as §2
A chronic constriction injury (CCI) model was used. Unilateral constriction injury of the left sciatic nerve just proximal to the trifurcation was performed. Anesthesia was induced and maintained by 2% isoflurane, combined with oxygen (30%). The sciatic nerve was exposed at the mid-thigh level proximal to the sciatic trifurcation by blunt dissection through the biceps femoris muscle. […] Heat hyperalgesia and mechanical sensitization were assessed 7 days after surgery.
Paw withdrawal latencies upon exposure to a defined radiant heat stimulus were measured using a commercially available apparatus (Plantar Test, Ugo Basile, Comerio, Italy). […]

[7] = tested on: α2 versus α1 receptor complexes; settings: cited from earlier work
mice, motor activity = assay: Motor activity (photocell interruptions); type: in vivo
healthy volunteers = settings: standard therapeutic doses; cited from earlier work
[8] = after a single oral dose of 20 or 30 mg of CBZ; cited from earlier work
[9] = tested on: T6, α1β2γ2, α2β3γ2, α3β3γ2 and α5β2γ2 GABAARs; assay: Whole-cell patch-clamp, results stated across several recombinant GABAAR subtypes; type: cell-based, rat; settings: α1-, α2- and α5-GABAARs together; GABA at EC10
T6 construct: rows headed: Potentiation of the other three α1-, α2-, and α5-GABAARs subtypes; other: α1-, α2- and α5-GABAARs together; GABA at EC1; fused on or other part: eGFP co-expressed from an IRES on the γ2 plasmid (not fused)
Description: as §1

α2GABAAR = α2GABAAR (Mus musculus, UniProt P22723+P26048); settings: full agonist; cited from earlier work
[10] = tested on: α1GABAAR-mediated sedation; assay: Dose dependence of sedation in triple (H→R) point-mutated mice; settings: all GABAARs except α1 BDZ-insensitive
Protocol: Mice (C57BL/6J or 129X1/SvJ) were tested during the light phase of the day-night cycle. […] Motor activity expressed as the total number of photocell interruptions was recorded for 6 h.

[11] = single oral doses of 3, 10 and 30 mg kg^−1
[12] = quadruple point-mutated mice, 30 mg kg^−1

T2 sequence (P20236 29-493): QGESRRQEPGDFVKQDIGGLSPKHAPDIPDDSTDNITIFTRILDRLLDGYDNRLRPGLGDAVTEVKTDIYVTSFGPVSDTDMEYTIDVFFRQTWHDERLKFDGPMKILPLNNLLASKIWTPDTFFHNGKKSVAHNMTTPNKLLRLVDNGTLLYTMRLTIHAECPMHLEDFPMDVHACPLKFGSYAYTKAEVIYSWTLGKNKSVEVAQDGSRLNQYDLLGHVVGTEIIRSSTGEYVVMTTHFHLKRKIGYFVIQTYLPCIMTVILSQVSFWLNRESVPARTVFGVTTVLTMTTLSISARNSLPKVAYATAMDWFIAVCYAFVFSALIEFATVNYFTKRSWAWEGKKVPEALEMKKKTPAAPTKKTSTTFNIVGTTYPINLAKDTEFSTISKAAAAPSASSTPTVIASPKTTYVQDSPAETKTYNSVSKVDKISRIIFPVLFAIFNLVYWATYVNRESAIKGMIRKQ
T2 sequence (P63079 26-473 partner): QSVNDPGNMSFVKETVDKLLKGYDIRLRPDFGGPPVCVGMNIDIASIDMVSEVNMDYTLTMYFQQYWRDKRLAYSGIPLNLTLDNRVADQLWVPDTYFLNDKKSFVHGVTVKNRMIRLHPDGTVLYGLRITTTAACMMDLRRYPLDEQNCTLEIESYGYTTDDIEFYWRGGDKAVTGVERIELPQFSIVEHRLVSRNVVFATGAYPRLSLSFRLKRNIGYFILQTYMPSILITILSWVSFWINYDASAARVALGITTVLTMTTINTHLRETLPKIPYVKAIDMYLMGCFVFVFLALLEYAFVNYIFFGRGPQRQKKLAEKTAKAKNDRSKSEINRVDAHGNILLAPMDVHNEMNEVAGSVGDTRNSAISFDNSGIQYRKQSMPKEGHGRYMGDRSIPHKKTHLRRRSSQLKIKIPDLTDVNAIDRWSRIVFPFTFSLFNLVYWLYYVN
T2 sequence (P18508 39-466): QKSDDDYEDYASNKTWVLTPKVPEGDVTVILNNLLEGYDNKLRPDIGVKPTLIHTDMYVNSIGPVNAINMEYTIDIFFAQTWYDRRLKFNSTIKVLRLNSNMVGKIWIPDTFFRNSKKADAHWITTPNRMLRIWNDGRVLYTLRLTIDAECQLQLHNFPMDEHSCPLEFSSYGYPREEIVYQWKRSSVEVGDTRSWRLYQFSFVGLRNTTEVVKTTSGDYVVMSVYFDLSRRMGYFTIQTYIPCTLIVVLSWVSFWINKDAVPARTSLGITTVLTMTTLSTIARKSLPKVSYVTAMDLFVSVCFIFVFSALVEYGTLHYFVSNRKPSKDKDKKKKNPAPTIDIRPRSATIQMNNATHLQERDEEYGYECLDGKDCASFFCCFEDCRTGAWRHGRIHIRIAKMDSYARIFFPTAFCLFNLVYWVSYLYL
T4 sequence (P23576 29-451): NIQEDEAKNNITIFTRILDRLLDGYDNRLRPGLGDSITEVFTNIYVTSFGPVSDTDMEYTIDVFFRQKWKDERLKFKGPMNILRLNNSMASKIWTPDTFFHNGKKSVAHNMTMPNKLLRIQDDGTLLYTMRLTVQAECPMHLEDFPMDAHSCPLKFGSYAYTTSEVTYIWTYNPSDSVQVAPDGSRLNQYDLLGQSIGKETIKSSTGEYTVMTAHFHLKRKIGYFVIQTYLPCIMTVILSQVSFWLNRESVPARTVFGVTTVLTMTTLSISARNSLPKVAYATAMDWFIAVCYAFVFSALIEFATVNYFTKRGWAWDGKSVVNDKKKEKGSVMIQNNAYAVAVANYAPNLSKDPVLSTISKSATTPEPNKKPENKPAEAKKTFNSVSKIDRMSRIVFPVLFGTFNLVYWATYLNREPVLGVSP
T4 sequence (P63079 26-473 partner): as the sequence (P63079 26-473 partner) above
T4 sequence (P18508 39-466): as the sequence (P18508 39-466) above
Chain of α2GABAAR (P26048 29-451): as the sequence (P23576 29-451) above, with S88L, P174A counted along it
Chain of α2GABAAR (P22723 39-474): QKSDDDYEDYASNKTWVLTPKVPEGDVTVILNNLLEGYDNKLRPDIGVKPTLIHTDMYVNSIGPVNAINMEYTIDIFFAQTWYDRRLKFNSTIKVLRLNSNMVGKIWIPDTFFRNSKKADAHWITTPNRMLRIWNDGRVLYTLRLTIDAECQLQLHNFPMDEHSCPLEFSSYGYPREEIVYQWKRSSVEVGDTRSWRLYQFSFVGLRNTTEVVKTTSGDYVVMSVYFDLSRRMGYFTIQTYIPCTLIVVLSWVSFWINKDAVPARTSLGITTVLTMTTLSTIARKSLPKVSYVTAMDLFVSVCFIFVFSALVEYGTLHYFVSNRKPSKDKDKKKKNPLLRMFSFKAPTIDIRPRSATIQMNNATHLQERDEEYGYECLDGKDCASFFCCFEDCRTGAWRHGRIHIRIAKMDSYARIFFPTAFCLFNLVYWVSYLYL
T3 sequence (P19969 32-464 limits assumed): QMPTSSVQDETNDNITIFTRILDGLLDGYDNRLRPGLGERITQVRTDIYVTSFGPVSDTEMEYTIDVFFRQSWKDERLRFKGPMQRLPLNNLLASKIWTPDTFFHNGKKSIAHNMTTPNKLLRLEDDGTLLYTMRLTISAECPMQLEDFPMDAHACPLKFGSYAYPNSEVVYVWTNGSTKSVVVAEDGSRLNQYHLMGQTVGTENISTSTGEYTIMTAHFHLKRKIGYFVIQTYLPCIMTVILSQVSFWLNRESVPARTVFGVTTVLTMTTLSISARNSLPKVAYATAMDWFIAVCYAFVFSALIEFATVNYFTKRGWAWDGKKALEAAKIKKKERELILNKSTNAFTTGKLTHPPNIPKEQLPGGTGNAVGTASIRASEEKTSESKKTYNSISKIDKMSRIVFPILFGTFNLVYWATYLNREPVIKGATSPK
T3 sequence (P63138 25-474 partner limits assumed): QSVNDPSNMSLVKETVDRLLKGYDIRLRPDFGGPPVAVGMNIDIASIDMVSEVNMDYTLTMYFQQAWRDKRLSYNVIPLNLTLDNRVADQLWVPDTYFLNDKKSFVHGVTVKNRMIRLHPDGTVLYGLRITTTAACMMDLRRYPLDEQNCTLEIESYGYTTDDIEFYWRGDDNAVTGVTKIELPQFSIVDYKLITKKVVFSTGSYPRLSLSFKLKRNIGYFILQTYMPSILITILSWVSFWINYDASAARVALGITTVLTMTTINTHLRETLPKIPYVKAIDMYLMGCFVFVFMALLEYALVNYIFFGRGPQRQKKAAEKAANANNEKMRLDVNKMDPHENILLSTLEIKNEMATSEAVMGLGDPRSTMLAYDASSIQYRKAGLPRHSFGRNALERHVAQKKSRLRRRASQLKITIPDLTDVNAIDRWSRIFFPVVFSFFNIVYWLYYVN
T3 sequence (P18508 39-466): as the sequence (P18508 39-466) above
T1 sequence (P62813 28-455): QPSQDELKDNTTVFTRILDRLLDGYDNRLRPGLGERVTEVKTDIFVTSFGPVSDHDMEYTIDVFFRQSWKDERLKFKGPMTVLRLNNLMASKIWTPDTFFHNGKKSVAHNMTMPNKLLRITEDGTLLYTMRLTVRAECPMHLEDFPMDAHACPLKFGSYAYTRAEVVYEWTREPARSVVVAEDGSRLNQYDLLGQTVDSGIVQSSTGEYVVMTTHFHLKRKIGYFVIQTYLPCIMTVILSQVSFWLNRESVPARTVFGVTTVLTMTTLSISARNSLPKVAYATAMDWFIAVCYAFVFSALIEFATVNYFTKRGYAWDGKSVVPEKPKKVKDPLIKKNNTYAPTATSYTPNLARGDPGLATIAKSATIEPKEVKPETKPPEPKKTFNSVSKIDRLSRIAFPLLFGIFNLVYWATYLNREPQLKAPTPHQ
T1 sequence (P63138 25-474 partner limits assumed): as the sequence (P63138 25-474 partner limits assumed) above
T1 sequence (P18508 39-466): as the sequence (P18508 39-466) above

Row | Compound | Potentiation of currents (% increase upon application) (α3β3γ2 GABAAR) | Preference α2- versus α1GABAARs at low concentrations [1] | Efficacy of potentiation of α2- versus α1GABAARs at saturating concentrations [1] | Relative potentiation of subtypes at sub-saturating concentrations [1] | Direct activation of GABAAR currents [2] | ED50 antihyperalgesia [4] [mg/kg] | Binding affinity for α2 versus α1 receptor complexes [7] | Analgesic effect (healthy volunteers) | also measured
1 | O=C1CC(=O)N(c2ccccc2)c2cc(Cl)ccc2N1 [NDMC, 8-Chloro-1-phenyl-1H-1,5-benzodiazepine-2,4(3H,5H)-dione] | 245% | preferred α2GABAARs across the entire concentration range tested | clearly favored α2-over α1GABAARs | highest for α2- followed by α3-, and lowest for α5- and α1-GABAARs mediated currents | did not directly activate GABAAR currents | 3.1 ± 0.9 | a difference which is shared | – | Potentiation of currents (% increase upon application) (α1β2γ2 GABAAR): 143%; Potentiation of currents (% increase upon application) (α5β2γ2 GABAAR): 148%; Efficacy at α2β3γ2GABAARs compared with DZP (α2β3γ2 GABAAR): even stronger efficacy at α2β3γ2GABAARs than the full agonist DZP; Potentiation of currents (% increase upon application) (α2β3γ2 GABAAR; α2GABAARs, GABA at EC10): 253%; α2/α1GABAAR selectivity ratio ([1]; compared among DZP, CBZ and NDMC): most favorable α2/α1GABAAR selectivity ratio; half-life ([3]; C57BL/6, mouse, plasma, range over single oral doses of 3, 10 and 30 mg kg^−1): 4.6 to 5.6 h; Average maximum plasma concentration ([3]; single oral dose 3 mg kg^−1): 1.2 µg/mL; Average maximum plasma concentration ([3]; single oral dose 10 mg kg^−1): 1.9 µg/mL; Average maximum plasma concentration ([3]; single oral dose 30 mg kg^−1): 3.3 µg/mL; Time to average maximum plasma concentrations [3, 11]: about 2.5 hrs; Time to maximal blood levels [3, 11]: 2 to 3 h; Reversal of mechanical hypersensitivity (paw withdrawal threshold) ([5]; C57BL/6J mice, injured paw, NDMC 3, 10, 30 mg/kg, compared to vehicle): dose-dependently reversed this hypersensitivity; Antihyperalgesic effect, mechanical hyperalgesia [5, 12]: completely lost its antihyperalgesic effects; Reversal of thermal hypersensitivity (paw withdrawal latency) ([6]; C57BL/6J mice, injured paw, NDMC 3, 10, 30 mg/kg): dose-dependently reversed this hypersensitivity; Antihyperalgesic effect, heat hyperalgesia [6, 12]: completely lost its antihyperalgesic effects; Effect on locomotor activity (sedation) (mice, motor activity; 129X1/SvJ mice, all tested doses): did not cause any measurable reduction in locomotor activity; Effect on motor activity (sedation) (mice, motor activity; C57BL/6J mice, 3, 10, 30 mg/kg, recorded for 6 h): did not impair motor activity at any dose
2 | O=C1CN=C(c2ccccc2Cl)c2cc([N+](=O)[O-])ccc2N1 [clonazepam] | – | – | – | – | – | – | no distinction of affinity between α2 and α1 receptor complexes | weak analgesic effects | –
3 | CN1C(=O)CC(=O)N(c2ccccc2)c2cc(Cl)ccc21 [CBZ, clobazam] | about 300% | about similar effects on α2- and α1GABAARs | potentiated both GABAAR subtypes with similar efficacy | α1GABAAR mediated currents were potentiated similarly to α2-, α3- and α5-GABAARs mediated currents | did not directly activate GABAAR currents | – | higher binding affinity for α2 versus α1 receptor complexes | weak analgesic effects | Half-life in human [8]: 23 to 24 h; Potentiation of the other three α1-, α2-, and α5-GABAARs subtypes [9]: about 150%
4 | CN1C(=O)CN=C(c2ccccc2)c2cc(Cl)ccc21 [DZP, diazepam] | 237% | favored α1GABAARs | potentiated both GABAAR subtypes with similar efficacy | α1GABAAR mediated currents were potentiated more strongly than α2-, α3- and α5-GABAARs mediated currents | did not directly activate GABAAR currents | 3.4 ± 1.3 | – | – | α2GABAAR occupancy at which significant analgesia (>50% maximum possible effect) is achieved (α2GABAAR): about 70%; ED50 sedation [10]: 0.59 ± 0.08 mg/kg
